Reference: PubChem BioAssay AID1259407 (Chemical Carcinogenesis Research Information System (CCRIS), 2018)
Calls of active or inactive are those of the source. No rule for the calls is given here.

Test system: CCRIS mutagenicity, Ames/micronucleus/aberration tests
Experiment: CCRIS mutagenicity studies

Nc1ccc(Cl)cc1
mutagenic call (End Point: IN VITRO MICRONUCLEUS, Test System: CHL/IU CELLS, Metabolic Activation: RAT, LIVER, S-9, PHENOBARBITAL AND 5,6-BENZOFLAVONE): inactive; negative
mutagenic call (Test System: AMES SALMONELLA TYPHIMURIUM, Strain/Indicator: TA97, Metabolic Activation: HAMSTER, LIVER, S-9, AROCLOR 1254, Method: PREINCUBATION): inactive; negative
mutagenic call (Test System: AMES SALMONELLA TYPHIMURIUM, Strain/Indicator: TA97, Metabolic Activation: NONE, Method: PREINCUBATION): inactive; negative
mutagenic call (Test System: AMES SALMONELLA TYPHIMURIUM, Strain/Indicator: TA97, Metabolic Activation: RAT, LIVER, S-9, AROCLOR 1254, Method: PREINCUBATION): inactive; negative
mutagenic call (Test System: AMES SALMONELLA TYPHIMURIUM, Strain/Indicator: TA98, Metabolic Activation: HAMSTER, LIVER, S-9 (10%), AROCLOR 1254, Method: PREINCUBATION): active; positive
mutagenic call (Test System: AMES SALMONELLA TYPHIMURIUM, Strain/Indicator: TA98, Metabolic Activation: HAMSTER, LIVER, S-9, AROCLOR 1254, Method: STANDARD PLATE): active; positive
mutagenic call (Test System: AMES SALMONELLA TYPHIMURIUM, Strain/Indicator: TA98, Metabolic Activation: NONE, Method: PREINCUBATION): inactive; negative
mutagenic call (Test System: AMES SALMONELLA TYPHIMURIUM, Strain/Indicator: TA98, Metabolic Activation: NONE, Method: SPOT TEST): inactive; negative
mutagenic call (Test System: AMES SALMONELLA TYPHIMURIUM, Strain/Indicator: TA98, Metabolic Activation: RAT, LIVER, S-9 (5%, 10% OR 30%), AROCLOR 1254, Method: PREINCUBATION): active; positive
mutagenic call (Test System: AMES SALMONELLA TYPHIMURIUM, Strain/Indicator: TA98, Metabolic Activation: RAT, LIVER, S-9, AROCLOR 1254, Method: SPOT TEST): inactive; negative
mutagenic call (Test System: AMES SALMONELLA TYPHIMURIUM, Strain/Indicator: TA98, Metabolic Activation: RAT, LIVER, S-9, SODIUM PHENOBARBITONE, Method: SPOT TEST): inactive; negative
mutagenic call (Test System: AMES SALMONELLA TYPHIMURIUM, Strain/Indicator: TA98, Metabolic Activation: RAT, LIVER, S-9, SODIUM PHENOBARBITONE, Method: STANDARD PLATE): inactive; negative
mutagenic call (Test System: AMES SALMONELLA TYPHIMURIUM, Strain/Indicator: TA100, Metabolic Activation: HAMSTER, LIVER, S-9 (5% OR 10%), AROCLOR 1254, Method: PREINCUBATION): inactive; negative
mutagenic call (Test System: AMES SALMONELLA TYPHIMURIUM, Strain/Indicator: TA100, Metabolic Activation: HAMSTER, LIVER, S-9, AROCLOR 1254, Method: PREINCUBATION): inactive; negative
mutagenic call (Test System: AMES SALMONELLA TYPHIMURIUM, Strain/Indicator: TA100, Metabolic Activation: HAMSTER, LIVER, S-9, AROCLOR 1254, Method: STANDARD PLATE): inactive; negative
mutagenic call (Test System: AMES SALMONELLA TYPHIMURIUM, Strain/Indicator: TA100, Metabolic Activation: NONE, Method: PREINCUBATION): inactive; negative
mutagenic call (Test System: AMES SALMONELLA TYPHIMURIUM, Strain/Indicator: TA100, Metabolic Activation: NONE, Method: SPOT TEST): inactive; negative
mutagenic call (Test System: AMES SALMONELLA TYPHIMURIUM, Strain/Indicator: TA100, Metabolic Activation: RAT, LIVER, S-9 (5% OR 10%), AROCLOR 1254, Method: PREINCUBATION): inactive; negative
mutagenic call (Test System: AMES SALMONELLA TYPHIMURIUM, Strain/Indicator: TA100, Metabolic Activation: RAT, LIVER, S-9 (30%), AROCLOR 1254, Method: PREINCUBATION): inactive; negative
mutagenic call (Test System: AMES SALMONELLA TYPHIMURIUM, Strain/Indicator: TA100, Metabolic Activation: RAT, LIVER, S-9, AROCLOR 1254, Method: PREINCUBATION): inactive; negative
mutagenic call (Test System: AMES SALMONELLA TYPHIMURIUM, Strain/Indicator: TA100, Metabolic Activation: RAT, LIVER, S-9, AROCLOR 1254, Method: SPOT TEST): inactive; negative
mutagenic call (Test System: AMES SALMONELLA TYPHIMURIUM, Strain/Indicator: TA100, Metabolic Activation: RAT, LIVER, S-9, AROCLOR 1254, Method: STANDARD PLATE): inactive; negative
mutagenic call (Test System: AMES SALMONELLA TYPHIMURIUM, Strain/Indicator: TA100, Metabolic Activation: RAT, LIVER, S-9, SODIUM PHENOBARBITONE, Method: SPOT TEST): inactive; negative
mutagenic call (Test System: AMES SALMONELLA TYPHIMURIUM, Strain/Indicator: TA100, Metabolic Activation: RAT, LIVER, S-9, SODIUM PHENOBARBITONE, Method: STANDARD PLATE): inactive; negative
mutagenic call (Test System: AMES SALMONELLA TYPHIMURIUM, Strain/Indicator: TA1535, Metabolic Activation: HAMSTER, LIVER, S-9, AROCLOR 1254, Method: PREINCUBATION): inactive; negative
mutagenic call (Test System: AMES SALMONELLA TYPHIMURIUM, Strain/Indicator: TA1535, Metabolic Activation: NONE, Method: PREINCUBATION): inactive; negative
mutagenic call (Test System: AMES SALMONELLA TYPHIMURIUM, Strain/Indicator: TA1535, Metabolic Activation: NONE, Method: SPOT TEST): inactive; negative
mutagenic call (Test System: AMES SALMONELLA TYPHIMURIUM, Strain/Indicator: TA1535, Metabolic Activation: NONE, Method: STANDARD PLATE): inactive; negative
mutagenic call (Test System: AMES SALMONELLA TYPHIMURIUM, Strain/Indicator: TA1535, Metabolic Activation: RAT, LIVER, S-9, AROCLOR 1254, Method: PREINCUBATION): inactive; negative
mutagenic call (Test System: AMES SALMONELLA TYPHIMURIUM, Strain/Indicator: TA1535, Metabolic Activation: RAT, LIVER, S-9, AROCLOR 1254, Method: SPOT TEST): inactive; negative
mutagenic call (Test System: AMES SALMONELLA TYPHIMURIUM, Strain/Indicator: TA1535, Metabolic Activation: RAT, LIVER, S-9, AROCLOR 1254, Method: STANDARD PLATE): inactive; negative
mutagenic call (Test System: AMES SALMONELLA TYPHIMURIUM, Strain/Indicator: TA1535, Metabolic Activation: RAT, LIVER, S-9, SODIUM PHENOBARBITONE, Method: SPOT TEST): inactive; negative
mutagenic call (Test System: AMES SALMONELLA TYPHIMURIUM, Strain/Indicator: TA1535, Metabolic Activation: RAT, LIVER, S-9, SODIUM PHENOBARBITONE, Method: STANDARD PLATE): inactive; negative
mutagenic call (Test System: AMES SALMONELLA TYPHIMURIUM, Strain/Indicator: TA1537, Metabolic Activation: HAMSTER, LIVER, S-9, AROCLOR 1254, Method: PREINCUBATION): inactive; negative
mutagenic call (Test System: AMES SALMONELLA TYPHIMURIUM, Strain/Indicator: TA1537, Metabolic Activation: NONE, Method: PREINCUBATION): inactive; negative
mutagenic call (Test System: AMES SALMONELLA TYPHIMURIUM, Strain/Indicator: TA1537, Metabolic Activation: NONE, Method: SPOT TEST): inactive; negative
mutagenic call (Test System: AMES SALMONELLA TYPHIMURIUM, Strain/Indicator: TA1537, Metabolic Activation: NONE, Method: STANDARD PLATE): inactive; negative
mutagenic call (Test System: AMES SALMONELLA TYPHIMURIUM, Strain/Indicator: TA1537, Metabolic Activation: RAT, LIVER, S-9, AROCLOR 1254, Method: PREINCUBATION): inactive; negative
mutagenic call (Test System: AMES SALMONELLA TYPHIMURIUM, Strain/Indicator: TA1537, Metabolic Activation: RAT, LIVER, S-9, AROCLOR 1254, Method: SPOT TEST): inactive; negative
mutagenic call (Test System: AMES SALMONELLA TYPHIMURIUM, Strain/Indicator: TA1537, Metabolic Activation: RAT, LIVER, S-9, AROCLOR 1254, Method: STANDARD PLATE): inactive; negative
mutagenic call (Test System: AMES SALMONELLA TYPHIMURIUM, Strain/Indicator: TA1537, Metabolic Activation: RAT, LIVER, S-9, SODIUM PHENOBARBITONE, Method: SPOT TEST): inactive; negative
mutagenic call (Test System: AMES SALMONELLA TYPHIMURIUM, Strain/Indicator: TA1537, Metabolic Activation: RAT, LIVER, S-9, SODIUM PHENOBARBITONE, Method: STANDARD PLATE): inactive; negative
mutagenic call (Test System: AMES SALMONELLA TYPHIMURIUM, Strain/Indicator: TA1538, Metabolic Activation: NONE, Method: SPOT TEST): inactive; negative
mutagenic call (Test System: AMES SALMONELLA TYPHIMURIUM, Strain/Indicator: TA1538, Metabolic Activation: NONE, Method: STANDARD PLATE): inactive; negative
mutagenic call (Test System: AMES SALMONELLA TYPHIMURIUM, Strain/Indicator: TA1538, Metabolic Activation: RAT, LIVER, S-9, AROCLOR 1254, Method: SPOT TEST): inactive; negative
mutagenic call (Test System: AMES SALMONELLA TYPHIMURIUM, Strain/Indicator: TA1538, Metabolic Activation: RAT, LIVER, S-9, AROCLOR 1254, Method: STANDARD PLATE): inactive; negative
mutagenic call (Test System: AMES SALMONELLA TYPHIMURIUM, Strain/Indicator: TA1538, Metabolic Activation: RAT, LIVER, S-9, SODIUM PHENOBARBITONE, Method: SPOT TEST): inactive; negative
mutagenic call (Test System: AMES SALMONELLA TYPHIMURIUM, Strain/Indicator: TA1538, Metabolic Activation: RAT, LIVER, S-9, SODIUM PHENOBARBITONE, Method: STANDARD PLATE): inactive; negative
mutagenic call (Test System: E. COLI, Strain/Indicator: WP2 UVRA(P), Metabolic Activation: NONE, Method: STANDARD PLATE): inactive; negative
mutagenic call (Test System: E. COLI, Strain/Indicator: WP2 UVRA, Metabolic Activation: NONE, Method: FLUCTUATION TEST): inactive; negative
mutagenic call (Test System: E. COLI, Strain/Indicator: WP2 UVRA, Metabolic Activation: NONE, Method: STANDARD PLATE): inactive; negative
mutagenic call (Test System: MOUSE LYMPHOMA, Strain/Indicator: L5178Y (TK+/TK-), Metabolic Activation: NONE, Method: SUSPENSION/PLATE): active; positive
mutagenic call (Test System: MOUSE LYMPHOMA, Strain/Indicator: L5178Y (TK+/TK-), Metabolic Activation: RAT, LIVER, S-9, AROCLOR 1254, Method: SUSPENSION/PLATE): active; positive
mutagenic call (Test System: Mouse lymphoma, Strain/Indicator: L5178Y (tk+/tk-), Metabolic Activation: None, Method: Suspension/plate): active; equivocal (previous evaluation positive)
mutagenic call (Test System: Mouse lymphoma, Strain/Indicator: T5178Y (tk+/tk-), Metabolic Activation: Rat, Liver, S-9, Aroclor 1254, Method: Suspension/plate): active; inconclusive (previous evaluation positive)
